Source: patent publication US8569371B2, “Crystal forms of O-desmethylvenlafaxine fumarate” (Pliva Hrvatska D.O.O., priority 2010, dated 2013)

Experiment: Differential Scanning Calorimetry (DSC) comparison of crystal forms
Type: physicochemical
Conditions: comparison of DSC curves (FIG. 6); heating rate 10° C./min, 20-200° C.; melting 34° C. higher than Form I and 16° C. higher than Form II
Experimental: Differential Scanning Calorimetry (DSC) A. Equipment Instrument: TA Universal Analysis Q1000 Software: Universal Analysis 2000 B. Experimental Parameters Heating rate: 10° C./min Temperature range: 20-200° C. Sample size: 2.00-5.00 mg Purge gas: Nitrogen, 40 ml/min Crucible: Hermetic pinholed

Question: With CN(C)CC(c1ccc(O)cc1)C1(O)CCCCC1.O=C(O)/C=C/C(=O)O (stereo not shown) [O-Desvenlafaxine fumarate Form N, O-desmethylvenlafaxine fumarate] as the compound, how does the “thermal stability as compared to forms I and II” value read?
Answer: The value was “enhanced thermal stability”.
